The target of data set [1] is T1, WT HIV-1 RT RNase H activity (Human immunodeficiency virus type 1 group M subtype B, UniProt P04585).
T1 construct: made in house
Nature of the data set: biochemical. The format is biochemical. How it is done:
(§1) WT (wild-type) RT, and RTs harboring the NNRTI-resistant mutations K101E, K103N, Y181C, Y188C, G190A and P236L, were overexpressed and purified to homogeneity as described previously. The RT concentration was determined spectrophotometrically at 280 nm using an absorbance coefficient of 260,450 M^−1·cm^−1. The 7-hydroxy tropolone derivative 19,616 (2,7-dihydroxy 2,4,6-cyclo-heptatrien-1-one) was purchased from Molecular Diversity Preservation International (Basel, Switzerland). […] The benzisothiazolone derivatives were procured from MolPort (New York, NY, USA) or Enamine (Kyiv, Ukraine). The DNA and RNA oligonucleotides were synthesized and purified by Integrated DNA Technologies (Coralville, IA, USA). All other reagents were of the highest quality available and were used without further purification.
Compounds were screened at a final concentration of 10 µM in 1× assay buffer (50 mM Tris pH 8.0, 60 mM KCl, 5 mM MgCl2) containing 1% DMSO in 384-well Greiner black polystyrene plates (VWR catalog # 82051-272). A total of 10 µL of intermediate diluted compounds (100 µM in 10% DMSO) was transferred into assay plates using the Evolution-3 (EP3) (Perkin Elmer, Waltham, MA, USA) automated liquid handling platform outfitted with a 384-well transfer head. A total of 40 µL of RT-RNase H enzyme (60 ng per well) were then dispensed into each well using the Titertek MAP-C2 reagent dispenser platform (Huntsville, AL, USA). A total of 50 µL of the RNA/DNA duplex (140 nM) substrate was then dispensed into each well using the MAP-C2 dispenser, and the assay plates were then incubated at room temperature for 20 min. After 20 min, the assay was terminated by the addition of 10 µL of 1 M EDTA pH 9.0 stop buffer. Relative fluorescent unit (RFU) signals, Excitation 490 nm and Emission 528 nm (Cutoff 515 nm), were captured on the Spectromax M5e plate reader (Molecular Devices, Menlo, CA, USA). […] The template also calculated the plate signal-to-background (S:B) ratios (mean maximum signal/mean minimum signal) and Z’-factor coefficient HTS performance statistics.
The following RNA/DNA T/P substrate was used in the present study: an 18-nucleotide RNA template (RNA-18T: 5′-[…]-3′) was annealed to an 18-nucleotide primer (DNA-18T: 5′-[…]-3′), as described previously. Fluorescein and IowaBlack FQTM were covalently attached to the 3′- and 5′-ter-mini of the RNA and DNA oligonucleotides, respectively.
The FRET-based RNase H cleavage assays were carried out as described previously. Fluorescence was measured with a SpectraMax M2 microplate spectrofluorometer (Molecular Devices, San Jose, CA, USA) using an excitation wavelength of 490 nm and an emission wavelength of 528 nm. Data were analyzed using SoftMax Pro software, version 4.7.1 (Molecular Devices, San Jose, CA, USA).
We implemented a rapid, robust and inexpensive fluorescence-based 384-well assay for the measurement of RT RNase H activity, previously described by Parniak et al.. The substrate comprises an 18-nucleotide 3′-fluorescein-labeled heteropolymeric RNA annealed to a complementary 5′-dabcyl-modified DNA. RT cleaves the RNA strand of this substrate close to the 3′ end, promoting the dissociation of the fluorescein-labeled RNA fragment and generating a detectable fluorescent signal. We used this HTS assay to screen 65,239 compounds at a final concentration of 10 µM.

Data set [2] deals with T2, G190A HIV-1 RT DNA-dependent DNA polymerase activity (Human immunodeficiency virus type 1 group M subtype B, UniProt P04585, G777A).
T2 construct: made in house
Description: biochemical. Format: biochemical. On the procedure:
as §1
(§2) DDDP assays were also performed using a QuantiFluor ONE based spectrophotometric assay to detect double-stranded DNA synthesized by recombinant HIV-1 RT [14]. The reaction contained 40 nM of a template/primer comprising a 200 nt DNA template (5′-[…] […]-[…]-[…] […] […]-3′) annealed to an 18-nucleotide DNA primer (5′-[…]-3′), and a mix of 50 mM Tris-HCl pH 7.8, 50 mM NaCl, 10 mM MgCl2 and 50 µM dNTP. The reactions were stopped after 45 min by adding the detection reagent containing 1 × Quant-Fluor One (Promega) and 12.5 mM ethylenediaminetet-raacetic acid; the samples were transferred to a 96-well black plate, and fluorescence was measured at excitation/emission (490/535 nm).

Data set [3] has as its system K101E HIV-1 RT DNA-dependent DNA polymerase activity. Description: biochemical. The settings on record: K101E RT; fold resistance IC50 mutant/IC50 WT. The format is biochemical. On the procedure: as §1, §2
Data set [4] deals with T3, K103N HIV-1 RT DNA-dependent DNA polymerase activity (Human immunodeficiency virus type 1 group M subtype B, UniProt P04585, K690N).
T3 construct: made in house
Description: biochemical. Format: biochemical. How it is done: as §1, §2

For data set [5], the system named is K103N HIV-1 RT DNA-dependent DNA polymerase activity. Nature of the data set: biochemical. The settings on record: K103N RT; fold resistance IC50 mutant/IC50 WT. The format is biochemical. How it is done: as §1, §2
Data set [6] relates to P236L HIV-1 RT DNA-dependent DNA polymerase activity. Nature of the data set: biochemical. Format: biochemical. The settings on record: P236L RT; fold resistance IC50 mutant/IC50 WT. How it is done:
as §1, §2

Data set [7] has as its target T4, WT HIV-1 RT DNA-dependent DNA polymerase activity (Human immunodeficiency virus type 1 group M subtype B, UniProt P04585).
T4 construct: made in house
Description: biochemical. Format: biochemical. How it is done: as §1, §2

In data set [8] the target is T5, Y181C HIV-1 RT DNA-dependent DNA polymerase activity (Human immunodeficiency virus type 1 group M subtype B, UniProt P04585, Y768C).
T5 construct: made in house
Nature of the data set: biochemical. The format is biochemical. On the procedure:
as §1, §2

Data set [9] deals with Y181C HIV-1 RT DNA-dependent DNA polymerase activity. Nature of the data set: biochemical. The format is biochemical. The conditions noted are these: Y181C RT; fold resistance IC50 mutant/IC50 WT. On the procedure: as §1, §2
Data set [10] has as its target T6, Y188C HIV-1 RT DNA-dependent DNA polymerase activity (Human immunodeficiency virus type 1 group M subtype B, UniProt P04585, Y775C).
T6 construct: made in house
Description: biochemical. Format: biochemical. On the procedure: as §1, §2

Data set [11] has as its system Y188C HIV-1 RT DNA-dependent DNA polymerase activity. Description: biochemical. Format: biochemical. The settings on record: Y188C RT; fold resistance IC50 mutant/IC50 WT. How it is done:
as §1, §2

Data set [12] is described as follows: Cytotoxicity in TZM-bl cells. Format: cell-based. The settings on record: human, TZM-bl cell death. On the procedure:
Next, we re-purchased 10 hit compounds with IC50 values < 1.0 µM for the inhibition of RT RNase H activity that were commercially available in sufficient quantities for further analysis. We assessed their antiviral activity and cytotoxicity in TZM-bl cells, as described previously.

Some results are limits rather than exact numbers.

By IC50 is commonly meant the concentration that inhibits the measured activity by half. The low end stands for greater potency in that assay, the high end for weaker potency in that assay. For orientation: CC50 means the concentration that lowers cell viability or growth by half. High values mean lower toxicity to the cells, low ones greater toxicity to the cells.

Consider `CCN(CC)S(=O)(=O)c1cccc(-n2sc3ccccc3c2=O)c1` [Compound 4, N,N-diethyl-3-(3-oxobenzo[d]isothiazol-2(3H)-yl)benzenesulfonamide], for which the IC50 worked out at 260 ± 80 nM in data set [1]; 1700 ± 1000 nM in [2]; 2100 ± 700 nM in data set [4]; 1100 ± 300 nM in data set [7]; 500 ± 200 nM in [8]; 300 ± 100 nM in data set [10]. The “Inhibition of RT DNA polymerase activity Fold-R” value amounted to 1.6 in [3]; 1.9 in data set [5]; 1.5 in [6]; 0.45 in [9]; 0.3 in data set [11]. Further, the CC50 in data set [12] was no less than 100000 nM.

As to `CCOC(=O)Cc1csc(-n2sc3ccccc3c2=O)n1` [Compound 2, ethyl 2-(2-(3-oxobenzo[d]isothiazol-2(3H)-yl)thiazol-4-yl)acetate], the IC50 in data set [1] was 130 ± 40 nM; in [2], 1930 ± 490 nM; in [4], 3280 ± 1530 nM; in [7], 2640 ± 1850 nM; in data set [8], 710 ± 100 nM; in data set [10], 530 ± 80 nM. The “Inhibition of RT DNA polymerase activity Fold-R” value in data set [3] is 1.8; in data set [5], 1.2; in data set [6], 1.9; in [9], 0.3; in data set [11] it was 0.2. This compound had a CC50 in [12] of no less than 100000 nM.

On to `Cc1ccc(-n2sc3ccccc3c2=O)cc1S(=O)(=O)N1CCCCC1` [Compound 1, 2-(4-methyl-3-(piperidin-1-ylsulfonyl)phenyl)benzo[d]isothiazol-3(2H)-one], for which the IC50 in [1] was 160 ± 30 nM; in data set [2], 1600 ± 880 nM; in data set [4], 3660 ± 1840 nM; in data set [7], 5970 ± 3100 nM; in data set [8], 610 ± 60 nM; in [10], 140 ± 10 nM. The “Inhibition of RT DNA polymerase activity Fold-R” value was 1.2 in data set [3]; 0.6 in data set [5]; 0.4 in [6]; 0.1 in data set [9]; 0.02 in [11]. The CC50 in data set [12] was no less than 100000 nM.
